Experimental data published in US8975415B2, “Chromane compounds” (CoMentis, Inc., priority 2012, dated 2015).
pIC50, pKi: −log10 of the molar value.

Legend:
[1] = biological target: T1, BACE1 (Homo sapiens (Human), UniProt P56817); test: Measurement of Aβ production inhibition in cell (SK-N-BE(2) neuroblastoma cells, Aβ40 ELISA); settings: Test Example 3 IC50, Aβ40 production, SK-N-BE(2) cells, 6 hours
Target sequence in this assay (P56817 46-501): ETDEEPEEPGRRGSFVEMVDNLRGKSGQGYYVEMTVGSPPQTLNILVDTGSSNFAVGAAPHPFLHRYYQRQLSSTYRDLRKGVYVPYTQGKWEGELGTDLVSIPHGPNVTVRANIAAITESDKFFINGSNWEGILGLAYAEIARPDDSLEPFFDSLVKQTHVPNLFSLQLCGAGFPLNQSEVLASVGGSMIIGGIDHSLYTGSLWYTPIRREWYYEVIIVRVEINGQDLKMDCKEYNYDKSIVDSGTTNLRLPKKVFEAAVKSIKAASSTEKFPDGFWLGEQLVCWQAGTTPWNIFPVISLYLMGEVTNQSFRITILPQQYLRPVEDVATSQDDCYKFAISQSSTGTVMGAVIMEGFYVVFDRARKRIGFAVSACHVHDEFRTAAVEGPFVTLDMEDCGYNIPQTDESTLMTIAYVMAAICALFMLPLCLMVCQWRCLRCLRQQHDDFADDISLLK

[2] = biological target: T1, BACE1; test: Measurement of BACE1 inhibition by fluorescence resonance energy transfer (FRET), MCA substrate; settings: FRET; for pIC50: read-out: Test Example 1 IC50, MCA-SEVNLDAEFK(DNP)-NH2 substrate, pH 4.4; for pKi: read-out: Test Example 1 BACE1 MCA Ki, MCA substrate
Target sequence in this assay (P56817 75-416): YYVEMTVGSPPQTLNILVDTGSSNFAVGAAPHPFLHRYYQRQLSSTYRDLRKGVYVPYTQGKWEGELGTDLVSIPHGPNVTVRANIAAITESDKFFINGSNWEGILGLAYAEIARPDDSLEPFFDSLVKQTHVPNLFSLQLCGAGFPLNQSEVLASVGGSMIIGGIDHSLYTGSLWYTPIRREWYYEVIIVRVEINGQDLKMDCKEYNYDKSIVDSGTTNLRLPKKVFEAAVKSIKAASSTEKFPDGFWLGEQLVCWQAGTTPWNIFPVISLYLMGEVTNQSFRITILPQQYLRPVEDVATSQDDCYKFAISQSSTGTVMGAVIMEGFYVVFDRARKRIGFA

SMILES | pIC50 [1] | pIC50 [2] | pKi [2]
CC1(C)Oc2ccc(-c3cncnc3)cc2C2(COC(N)=N2)C12COC2 (centres unmarked) [RP 69] | 7.40 | 6.40 | 
NC1=NC2(CO1)c1cc(-c3cncc(F)c3)ccc1OC1(CCC1)C21COC1 (centres unmarked) [RP 70] | 6.02 | 5.76 | 
COc1cncc(-c2ccc3c(c2)C2(COC(N)=N2)C2(COC2)C2(CCC2)O3)c1 (centres unmarked) [RP 72] | 7.17 | 6.09 | 
NC1=NC2(CO1)c1cc(-c3cc(Cl)cnc3F)ccc1OC1(CCC1)C21COC1 (centres unmarked) [RP 73] | 7.15 | 6.08 | 
CC1(C)Oc2ccc(-c3cccnc3F)cc2C2(COC(N)=N2)C12COC2 (centres unmarked) [RP 82] | 7.44 | 6.46 | 
CCC1Oc2ccc(-c3cncnc3)cc2C2(COC(N)=N2)C12COC2 (centres unmarked) [RP 87] | 6.37 | 5.81 | 
CC(C)CC1Oc2ccc(-c3cncnc3)cc2C2(COC(N)=N2)C12COC2 (centres unmarked) [RP 93] | 6.43 | 6.20 | 
CCCC1Oc2ccc(-c3cncnc3)cc2C2(COC(N)=N2)C12COC2 (centres unmarked) [RP 94] | 6.42 | 6.06 | 
CC#Cc1cncc(-c2ccc3c(c2)C2(COC(N)=N2)C2(COC2)C(CCC(F)(F)F)O3)c1 (centres unmarked) [RP 96] | 7.66 | 6.90 | 6.06
NC1=NC2(CO1)c1cc(-c3cncnc3)ccc1OCC21CCCO1 (centres unmarked) [RP 97] | 5.59 | 4.69 | 
NC1=NC2(CO1)c1cc(-c3cccnc3F)ccc1OCC21CC1 (centres unmarked) [RP 103] | 6.35 | 5.66 | 
NC1=NC2(CO1)c1cc(-c3cncc(Cl)c3)ccc1OCC21CC1 (centres unmarked) [RP 107] | 6.34 | 5.97 | 
CC#Cc1cncc(-c2ccc3c(c2)C2(COC(N)=N2)C2(COC2)C2(CCC2)O3)c1 (centres unmarked) [RP 109] | 7.32 | 6.82 | 6.92
CC#Cc1cncc(-c2cc3c(cc2F)OCC2(CC2)C32COC(N)=N2)c1 (centres unmarked) [RP 112] | 6.18 | 6.40 | 
CC#Cc1cncc(-c2ccc3c(c2)C2(COC(N)=N2)C2(CCC2)CO3)c1 (centres unmarked) [RP 113] | 6.33 | 5.95 | 
N#Cc1ncccc1-c1ccc2c(c1)C1(COC(N)=N1)C1(COC1)C1(CCC1)O2 (centres unmarked) [RP 115, 3-(2″-aminotrispiro[cyclobutane-1,2′-chromene-4′,4″-[1,3]oxazole-3′,3′″-oxetan]-6′-yl)pyridine-2-carbonitrile] | 5.96 | 5.48 | 
N#Cc1cncc(-c2ccc3c(c2)C2(COC(N)=N2)C2(COC2)C2(CCC2)O3)c1 (centres unmarked) [RP 120] | 5.64 | 5.72 | 
COc1cc(-c2ccc3c(c2)C2(COC(N)=N2)C2(COC2)C2(CCC2)O3)c(F)cn1 (centres unmarked) [RP 122] | 5.96 | 5.56 | 
NC1=NC2(CO1)c1cc(-c3cccc(F)c3)ccc1OC1(CCC1)C21COC1 (centres unmarked) [RP 125] | 6.24 | 5.64 | 
COc1cccc(-c2ccc3c(c2)C2(COC(N)=N2)C2(COC2)C2(CCC2)O3)c1 (centres unmarked) [RP 126] | 5.92 | 6.16 | 
Cc1cccc(-c2ccc3c(c2)C2(COC(N)=N2)C2(COC2)C2(CCC2)O3)c1 (centres unmarked) [RP 127] | 5.74 | 5.64 | 
N#Cc1cccc(-c2ccc3c(c2)C2(COC(N)=N2)C2(COC2)C2(CCC2)O3)c1 (centres unmarked) [RP 128] | 5.82 | 5.77 | 
CCOc1cc(-c2ccc3c(c2)C2(COC(N)=N2)C2(COC2)C2(CCC2)O3)cc(C(F)(F)F)c1 (centres unmarked) [RP 129] | 5.14 | 5.66 | 
NC1=NC2(CO1)c1cc(-c3cc(F)ccc3F)ccc1OC1(CCC1)C21COC1 (centres unmarked) [RP 130] | 5.77 | 5.73 | 
CCOc1cccc(-c2ccc3c(c2)C2(COC(N)=N2)C2(COC2)C2(CCC2)O3)c1 (centres unmarked) [RP 131] | 5.49 | 5.69 | 
N#C/C=C/c1cccc(-c2ccc3c(c2)C2(COC(N)=N2)C2(COC2)C2(CCC2)O3)c1 (centres unmarked) [RP 132] | 5.92 | 5.61 | 
CCOc1cc(F)cc(-c2ccc3c(c2)C2(COC(N)=N2)C2(COC2)C2(CCC2)O3)c1 (centres unmarked) [RP 133] | 5.55 | 5.78 | 
